Experimental data from patent publication US6632799B2, “Injectable ready-to-use solutions containing an antitumor anthracycline glycoside” (Pharmacia & Upjohn Company, priority 1985, dated 2003).
Structures can show the parent of a compound that is named as a salt.

Test: pH-stability profile at 55° C. of doxorubicin.HCl solutions in sterile water, 5% dextrose, 0.9% saline
Format: physicochemical
Conditions: for Doxorubicin.HCl % stability: 55° C.

## COc1cccc2c1C(=O)c1c(O)c3c(c(O)c1C2=O)C[C@@](O)(C(=O)CO)C[C@@H]3O[C@H]1C[C@H](N)[C@H](O)[C@H](C)O1 [Doxorubicin.HCl, doxorubicin hydrochloride]
5% dextrose, pH 2.0 buffer, 24 hours
  Doxorubicin.HCl % stability: 75.9%
5% dextrose, pH 2.0 buffer, 34 hours
  Doxorubicin.HCl % stability: 68.3%
5% dextrose, pH 2.0 buffer, 48 hours
  Doxorubicin.HCl % stability: 54.1%
5% dextrose, pH 2.0 buffer, 72 hours
  Doxorubicin.HCl % stability: 38.4%
5% dextrose, pH 2.5 buffer, 0 hours
  Doxorubicin.HCl % stability: 100.0%
5% dextrose, pH 2.5 buffer, 8 hours
  Doxorubicin.HCl % stability: 96.4%
5% dextrose, pH 2.5 buffer, 16 hours
  Doxorubicin.HCl % stability: 92.6%
5% dextrose, pH 2.5 buffer, 24 hours
  Doxorubicin.HCl % stability: 89.5%
5% dextrose, pH 2.5 buffer, 34 hours
  Doxorubicin.HCl % stability: 85.5%
5% dextrose, pH 2.5 buffer, 48 hours
  Doxorubicin.HCl % stability: 76.2%
5% dextrose, pH 2.5 buffer, 72 hours
  Doxorubicin.HCl % stability: 66.3%
5% dextrose, pH 3.0 buffer, 0 hours
  Doxorubicin.HCl % stability: 100.0%
5% dextrose, pH 3.0 buffer, 16 hours
  Doxorubicin.HCl % stability: 96.6%
5% dextrose, pH 3.0 buffer, 24 hours
  Doxorubicin.HCl % stability: 92.7%
5% dextrose, pH 3.0 buffer, 48 hours
  Doxorubicin.HCl % stability: 83.3%
5% dextrose, pH 3.0 buffer, 72 hours
  Doxorubicin.HCl % stability: 76.4%
5% dextrose, pH 3.0 buffer, 96 hours
  Doxorubicin.HCl % stability: 68.0%
5% dextrose, pH 3.0 buffer, 120 hours
  Doxorubicin.HCl % stability: 61.1%
5% dextrose, pH 3.5 buffer, 0 hours
  Doxorubicin.HCl % stability: 100.0%
5% dextrose, pH 3.5 buffer, 16 hours
  Doxorubicin.HCl % stability: 95.7%
5% dextrose, pH 3.5 buffer, 24 hours
  Doxorubicin.HCl % stability: 93.7%
5% dextrose, pH 3.5 buffer, 48 hours
  Doxorubicin.HCl % stability: 81.8%
5% dextrose, pH 3.5 buffer, 72 hours
  Doxorubicin.HCl % stability: 66.8%
5% dextrose, pH 3.5 buffer, 96 hours
  Doxorubicin.HCl % stability: 61.6%
5% dextrose, pH 4.0 buffer, 0 hours
  Doxorubicin.HCl % stability: 100.0%
5% dextrose, pH 4.0 buffer, 8 hours
  Doxorubicin.HCl % stability: 95.5%
5% dextrose, pH 4.0 buffer, 16 hours
  Doxorubicin.HCl % stability: 85.6%
5% dextrose, pH 4.0 buffer, 48 hours
  Doxorubicin.HCl % stability: 65.5%
5% dextrose, pH 4.0 buffer, 72 hours
  Doxorubicin.HCl % stability: 53.9%
5% dextrose, pH 5.0 buffer, 0 hours
  Doxorubicin.HCl % stability: 100.0%
5% dextrose, pH 5.0 buffer, 8 hours
  Doxorubicin.HCl % stability: 94.7%
5% dextrose, pH 5.0 buffer, 16 hours
  Doxorubicin.HCl % stability: 83.2%
5% dextrose, pH 5.0 buffer, 24 hours
  Doxorubicin.HCl % stability: 79.9%
5% dextrose, pH 5.0 buffer, 34 hours
  Doxorubicin.HCl % stability: 70.4%
5% dextrose, pH 5.0 buffer, 48 hours
  Doxorubicin.HCl % stability: 57.8%
5% dextrose, pH 5.5 buffer, 0 hours
  Doxorubicin.HCl % stability: 100.0%
5% dextrose, pH 5.5 buffer, 8 hours
  Doxorubicin.HCl % stability: 92.5%
5% dextrose, pH 5.5 buffer, 16 hours
  Doxorubicin.HCl % stability: 73.8%
5% dextrose, pH 5.5 buffer, 24 hours
  Doxorubicin.HCl % stability: 62.6%
5% dextrose, pH 5.5 buffer, 34 hours
  Doxorubicin.HCl % stability: 54.8%
Sterile water, Acetate pH 4.0, 55° C.
  Kobs × 10^3: 269.8 1/days
Sterile water, Acetate pH 5.0, 55° C.
  Kobs × 10^3: 322.6 1/days
Sterile water, Acetate pH 5.5, 55° C.
  Kobs × 10^3: 415.4 1/days
Sterile water, Formate pH 3.5, 55° C.
  Kobs × 10^3: 96.7 1/days
Sterile water, Glycine-HCl pH 2.0, 55° C.
  Kobs × 10^3: 309.5 1/days
Sterile water, Glycine-HCl pH 2.5, 55° C.
  Kobs × 10^3: 138.3 1/days
Sterile water, Glycine-HCl pH 3.0, 55° C.
  Kobs × 10^3: 93.1 1/days
Sterile water, pH 2.0 buffer, 0 hours
  Doxorubicin.HCl % stability: 100.0%
Sterile water, pH 2.0 buffer, 8 hours
  Doxorubicin.HCl % stability: 93.6%
Sterile water, pH 2.0 buffer, 16 hours
  Doxorubicin.HCl % stability: 82.6%
Sterile water, pH 2.0 buffer, 24 hours
  Doxorubicin.HCl % stability: 76.9%
Sterile water, pH 2.0 buffer, 48 hours
  Doxorubicin.HCl % stability: 56.6%
Sterile water, pH 2.0 buffer, 72 hours
  Doxorubicin.HCl % stability: 39.6%
Sterile water, pH 2.5 buffer, 0 hours
  Doxorubicin.HCl % stability: 100.0%
Sterile water, pH 2.5 buffer, 8 hours
  Doxorubicin.HCl % stability: 96.7%
Sterile water, pH 2.5 buffer, 16 hours
  Doxorubicin.HCl % stability: 92.1%
Sterile water, pH 2.5 buffer, 24 hours
  Doxorubicin.HCl % stability: 86.2%
Sterile water, pH 2.5 buffer, 48 hours
  Doxorubicin.HCl % stability: 78.2%
Sterile water, pH 3.0 buffer, 0 hours
  Doxorubicin.HCl % stability: 100.0%
Sterile water, pH 3.0 buffer, 8 hours
  Doxorubicin.HCl % stability: 97.8%
Sterile water, pH 3.0 buffer, 16 hours
  Doxorubicin.HCl % stability: 93.9%
Sterile water, pH 3.0 buffer, 24 hours
  Doxorubicin.HCl % stability: 91.4%
Sterile water, pH 3.0 buffer, 48 hours
  Doxorubicin.HCl % stability: 84.7%
Sterile water, pH 3.0 buffer, 72 hours
  Doxorubicin.HCl % stability: 76.1%
Sterile water, pH 3.0 buffer, 120 hours
  Doxorubicin.HCl % stability: 62.8%
Sterile water, pH 3.5 buffer, 0 hours
  Doxorubicin.HCl % stability: 100.0%
Sterile water, pH 3.5 buffer, 8 hours
  Doxorubicin.HCl % stability: 95.8%
Sterile water, pH 3.5 buffer, 16 hours
  Doxorubicin.HCl % stability: 92.7%
Sterile water, pH 3.5 buffer, 24 hours
  Doxorubicin.HCl % stability: 90.4%
Sterile water, pH 3.5 buffer, 48 hours
  Doxorubicin.HCl % stability: 81.1%
Sterile water, pH 3.5 buffer, 72 hours
  Doxorubicin.HCl % stability: 75.6%
Sterile water, pH 3.5 buffer, 120 hours
  Doxorubicin.HCl % stability: 61.0%
Sterile water, pH 4.0 buffer, 0 hours
  Doxorubicin.HCl % stability: 100.0%
Sterile water, pH 4.0 buffer, 8 hours
  Doxorubicin.HCl % stability: 88.0%
Sterile water, pH 4.0 buffer, 16 hours
  Doxorubicin.HCl % stability: 82.7%
Sterile water, pH 4.0 buffer, 24 hours
  Doxorubicin.HCl % stability: 76.8%
Sterile water, pH 4.0 buffer, 48 hours
  Doxorubicin.HCl % stability: 57.4%
Sterile water, pH 5.0 buffer, 0 hours
  Doxorubicin.HCl % stability: 100.0
Sterile water, pH 5.0 buffer, 8 hours
  Doxorubicin.HCl % stability: 90.3
Sterile water, pH 5.0 buffer, 16 hours
  Doxorubicin.HCl % stability: 83.6
Sterile water, pH 5.0 buffer, 24 hours
  Doxorubicin.HCl % stability: 74.9
Sterile water, pH 5.5 buffer, 0 hours
  Doxorubicin.HCl % stability: 100.0%
Sterile water, pH 5.5 buffer, 8 hours
  Doxorubicin.HCl % stability: 88.3%
Sterile water, pH 5.5 buffer, 16 hours
  Doxorubicin.HCl % stability: 69.7%
Sterile water, pH 5.5 buffer, 24 hours
  Doxorubicin.HCl % stability: 60.0%
Sterile water, pH 5.5 buffer, 48 hours
  Doxorubicin.HCl % stability: 44.1%
